The values that follow are results of earlier work, collected in patent publication US20030212034A1, “Method of treatment of obesity and paralyzed muscle and ergogenic aids” (priority 2002, published 2003).

The data set deals with AMPK. As to conditions: analogues of 5′-AMP; Hardie & Carling 1997; cited from earlier work.
`Nc1ncnc2c([C@@H]3O[C@H](COP(=O)(O)O)[C@@H](O)[C@H]3O)[nH]nc12` [Formycin A 5′-monophosphate]: the “potency of AMPK activation in vitro” value is on record as “less potently”.

For `Nc1ncnc2c1ncn2[C@@H]1O[C@H](COP(N)(=O)O)[C@@H](O)[C@H]1O` [adenosine 5′-phosphoramidate], the “potency of AMPK activation in vitro” value is listed as “more potently”.

As for `NC(=O)c1ncn([C@@H]2O[C@H](COP(=O)(O)O)[C@@H](O)[C@H]2O)c1N` [ZMP], the “potency of AMPK activation in vitro” value is listed as “less potently”.

In the case of `Nc1ncnc2c1ncn2[C@@H]1O[C@H](COP(O)(O)=S)[C@@H](O)[C@H]1O` [adenosine-5′-thiomonophosphate], the “potency of AMPK activation in vitro” value was “more potently”.
